Common to all, as to format: cell-based
The subject of experiment [1] is HDAC class I (p21 reporter gene). In words: HDAC subtype reporter gene assay, p21-promoter luciferase in HeLa cells. As to conditions: Homo sapiens, M-HeLa, read-out: % of SAHA Response for HDAC class I at 10 μM (p21 reporter gene), 24 hours. On the technique in general: Reporter assays use an easily measured gene product as a stand-in for the process of interest.
Experiment [2] deals with HDAC7 (Nur77 reporter gene). Description: HDAC subtype reporter gene assay, Nur77-promoter luciferase in HeLa cells. As to conditions: Homo sapiens, M-HeLa, read-out: % of SAHA Response for HDAC7 at 10 μM (Nur77 reporter gene), 24 hours.
Experiment [3] deals with HDAC4/5 (MEF2 reporter gene). In words: HDAC subtype reporter gene assay, MEF-binding element (MEF2) luciferase in HeLa cells. As to conditions: Homo sapiens, M-HeLa, read-out: % of SAHA Response for HDAC4/5 at 10 μM (MEF2 reporter gene), 24 hours.
The subject of experiment [4] is HDAC3 (gdf11 reporter gene). Description: HDAC subtype reporter gene assay, gdf11-promoter luciferase in HeLa cells. Conditions: Homo sapiens, M-HeLa, read-out: % of SAHA Response for HDAC3 at 10 μM (gdf11 reporter gene), 24 hours.
The test system of experiment [5] is lysine acetylation. Description: ELISA assay of acetylation of lysine in HeLa cells. Conditions: Homo sapiens, M-HeLa, 24 hours. From the text:
Measurement of acetylation activity in cells on substrates:
ELISA Assay of Acetylation of Lysine
This assay is used to measure in vivo inhibition of HDAC6 in a cytoblot assay.
Materials and Reagent: • 1. 24-well tissue culture • 2. DMEM Medium containing 10% FBS • 3. 96-well white plate • 4. HeLa cell line • 5. M-PER Mammalian Protein Extraction Reagent (Pierce) • 6. Bradford assay reagent • 7. Acetylated-lysine polyclonal Antibody (Cell Signaling) • 8. HRP-labeled anti-rabbit IgG (Upstate) • 9. Coating Buffer: 15 mM Na2CO3, 35 mM NaHCO3 (pH 9.6) • 10. 10×PBS: 0.58M Na2HPO4, 0.17M NaH2PO4, 0.68M NaCl (pH 7.4) • 11. Wash Buffer:1×PBS containing 0.05% Tween-20 (PBST) • 12. Blocking Buffer:10 mg/ml bocine serum albumin (BSA) in PBS • 13. Antibody Dilution Buffer: 5 mg/ml BSA in PBST • 14. Enhanced chemiluminescence (ECL) (Amersham)
Procedure for performing the assay in 96-well plate: • 1. HeLa cells were seeded at a density of 60000 cells/500 μl/well in 24-well plate and incubated at 37° C. for 24 hours. • 2. Compounds were added and incubated for 24 hours at 37° C. • 3. Culture medium was removed, then washes the cells twice with ice-cold PBS. • 4. Add 100 μl/well of Protein Extraction Reagent and gently shake the mixture for 5 minutes. • 5. Collect the lysate to a 96-well plate respectively. Determine the concentration of protein by Bradford assay. • 6. Coat the wells of a 96-well white plate with 100 μl/well of 2.5 μg whole cell protein in Coating Buffer by incubating overnight at 4° C. • 7. Discard the uncoated proteins and wash the coated wells three times with 200 μl/well of PBST. • 8. Block coated wells by incubating the plate with 200 μl/well of Blocking Buffer for 1 hour at 37° C. • 9. Wells were aspirated and washed three times with 200 μl/well of PBST. • 10. After aspirating, 50 μl/well of Antibody Dilution Buffer containing acetylated-lysine polyclonal antibody (1:1000) were added to each well and incubated for 2 hour at 37° C. • 11. Wells were aspirated and washed three times with 200 μl/well of PBST. • 12. 50 μl/well of Antibody Dilution Buffer containing HRP-labeled anti-rabbit IgG (1:2000) were added to each well and incubated for 2 hour at 37° C. • 13. Wells were aspirated and washed three times with 200 μl/well of PBST. • 14. Wells were washed three times with 200 μl/well of purified water. • 15. Add 50 μl/well of ECL mixture, then read the plates on the plate reader.

By fold induction is commonly meant the signal under treatment as a multiple of the control signal. Read a low fold induction as a weak induction. With `O=C(CCCCCNC(=O)c1cccc(/C=C2\C(=O)Nc3ccc(F)cc32)c1)NO` [Example 46, 6-(3-((5-fluoro-2-oxoindolin-3-ylidene)methyl)benzamido)-N-hydroxyhexanamide], the Emax at 10 µM in experiment [1] was found to be 15%; in experiment [2], 4%; in experiment [3], 27%; in experiment [4], 10%. Further, the fold induction at 10 µM in experiment [5] turned out to be 1.16.
For `Cc1[nH]c(/C=N/N=C2\C(=O)Nc3ccc(F)cc32)c(C)c1C(=O)NCCCCC(=O)Nc1ccccc1N` [Example 7, 5-(5-(((5-fluoro-2-oxoindolin-3-ylidene)hydrazono)methyl)-2,4-dimethyl-1H-pyrrole-3-carboxamido)-N-(2-aminophenyl)pentanamide] the same measures were 11%, 3%, 23%, 7% and 1.58.

The values are drawn from US7863315B2, “2-indolinone derivatives as selective histone deacetylase inhibitors” (Shenzhen Chipscreen Biosciences, Ltd., priority 2008, dated 2011).
